Data set [1] concerns the target P2Y purinoceptor 12 (Homo sapiens, UniProt Q9H244). As to the kind of experiment: Inhibition of human P2Y12 receptor expressed in CHO cells.
Data set [2] can be described thus: Antiplatelet activity in human platelet rich plasma assessed as inhibition of ADP-induced platelet aggregation. The format is functional.
Data set [3] in a line: Antiplatelet activity in human platelet rich plasma assessed as inhibition of ADP-induced platelet aggregation relative to AZD-6140. The format is functional.
Data set [4] can be described thus: Metabolic stability in rat microsomes. The class given is ADME, Microsome.
The nature of data set [5]: Metabolic stability in human microsomes. The class given is ADME, Microsome.
A short description of data set [6]: Clearance in Sprague-Dawley rat at 2 mg/kg, iv and 5 mg/kg, po. The format is ADME, organism-based. Conditions: in vivo.
Data set [7] is described as follows: Volume of distribution at steady state in Sprague-Dawley rat at 2 mg/kg, iv and 5 mg/kg, po. The format is ADME, organism-based. Conditions: in vivo, read-out: Vdss.
Data set [8] in a line: Effective half life in Sprague-Dawley rat at 2 mg/kg, iv and 5 mg/kg, po. The format is ADME, organism-based. Conditions: in vivo, read-out: t1/2eff (converted).
A short description of data set [9]: Clearance in Beagle dog at 0.2 mg/kg, iv and 0.2 mg/kg, po. The format is ADME, organism-based, Canis lupus familiaris. Conditions: in vivo.
Data set [10] is described as follows: Volume of distribution at steady state in Beagle dog at 0.2 mg/kg, iv and 0.2 mg/kg, po. The class given is ADME, organism-based, Canis lupus familiaris. The settings on record: in vivo, read-out: Vdss.
Data set [11] in a line: Effective half life in Beagle dog at 0.2 mg/kg, iv and 0.2 mg/kg, po. The format is ADME, organism-based, Canis lupus familiaris. Conditions: in vivo.

pIC50, pKi: −log10 of the molar value.

Sequence of P2Y purinoceptor 12 (Q9H244 whole entry): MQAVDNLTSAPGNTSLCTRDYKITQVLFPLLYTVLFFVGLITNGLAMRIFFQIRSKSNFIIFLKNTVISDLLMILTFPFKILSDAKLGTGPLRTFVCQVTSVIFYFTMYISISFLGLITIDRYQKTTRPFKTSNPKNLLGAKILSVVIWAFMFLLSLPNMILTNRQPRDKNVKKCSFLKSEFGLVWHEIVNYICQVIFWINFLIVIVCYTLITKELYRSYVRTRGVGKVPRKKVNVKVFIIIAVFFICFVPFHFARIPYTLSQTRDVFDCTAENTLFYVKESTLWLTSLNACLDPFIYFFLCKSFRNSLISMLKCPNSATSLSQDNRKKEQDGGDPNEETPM

In [1], `CCCCCOC(=O)N1CCN(C(=O)[C@H](CCC(=O)O)NC(=O)c2cc(N3CCCC(CN4CCCC4)C3)cc(-c3ccccc3)n2)CC1` (some centres undefined) had a pKi of 8.14. Also, the pIC50 in data set [2] is 5.77. Besides, the “fold change (FC)” value in data set [3] was 1.5. In addition, the Stability entry in data set [4] and in data set [5] was “Stable” throughout. This compound registered a clearance in [6] of 47 mL/min/kg. The Vd in data set [7] stood at 1.8 L/kg. In addition, the half-life in [8] is 24 min.

For the compound `CCCCCOC(=O)N1CCN(C(=O)[C@H](CCC(=O)O)NC(=O)c2cc(N3CCC(COC)CC3)cc(-c3ccccc3)n2)CC1`, in [2], the pIC50 was 5.41. In data set [3], the “fold change (FC)” value was 3.3. Further, the Stability entry in data set [4] and in data set [5] was “Stable” throughout. In addition, the clearance in data set [9] was determined as 1 mL/min/kg. In addition, the Vd in [10] is 0.14 L/kg. The half-life in [11] is 90 min.

In turn, `CCCCCOC(=O)N1CCN(C(=O)[C@H](CCC(=O)O)NC(=O)c2cc(N3CCN(C(C)=O)CC3)cc(-c3ccccc3)n2)CC1` gave a pKi in data set [1] of 7.66. In addition, in [2], the pIC50 was 5.64. Besides, the “fold change (FC)” value in [3] amounted to 2.7. In addition, the Stability result in [4] and in [5] was “Stable” throughout. In [6], the clearance amounted to 70 mL/min/kg. Besides, the Vd in data set [7] was 2.4 L/kg. In data set [8], the half-life was 24 min.

As to `CCCCOC(=O)N1CCN(C(=O)[C@H](CCC(=O)O)NC(=O)c2cc(N3CCC(C(=O)N(CC)CC)CC3)cc(-c3ccccc3)n2)CC1`, in [1], the pKi is 8.96. Also, the negative logarithm of the IC50 (pIC50) in data set [2] was 6.37. The “fold change (FC)” value in [3] was 0.71. For the same compound, the Stability result in data set [4] and in data set [5] was “Stable” in each case. Also, the clearance in [6] was found to be 24 mL/min/kg. For the same compound, the Vd in data set [7] was 0.9 L/kg. Moreover, the half-life in data set [8] is 24 min.

In data set [1], `CCCCCOC(=O)N1CCN(C(=O)[C@H](CCC(=O)O)NC(=O)c2cc(N3CCC(CCN(C)C)CC3)cc(-c3ccccc3)n2)CC1` gave a pKi of 7.92. Besides, in data set [2], the pIC50 is 6.41. For the same compound, the “fold change (FC)” value in data set [3] worked out at 0.54. The Stability result in [4] and in data set [5] was “Stable” throughout. In data set [6], this compound came in with a clearance of 145 mL/min/kg. Besides, in [7], the Vd was 5.1 L/kg. The half-life in data set [8] was 24 min.

Consider `CCCCCOC(=O)N1CCN(C(=O)[C@H](CCC(=O)O)NC(=O)c2cc(N3CC[C@@H](OCC(=O)N(CC)CC)C3)cc(-c3ccccc3)n2)CC1`, for which the pKi in data set [1] was 8.46. In data set [2], the pIC50 is 6.48. In addition, the “fold change (FC)” value in [3] is on record as 0.38. Moreover, the Stability result in data set [4] and in [5] was “Stable” each time. The same compound gave a clearance in data set [6] of 87 mL/min/kg. Moreover, the Vd in data set [7] is 2.1 L/kg. In addition, the half-life in [8] is 18 min.

Compound `CCCCCOC(=O)N1CCN(C(=O)[C@H](CCC(=O)O)NC(=O)c2cc(N3CCN(C)CC3)cc(-c3ccccc3)n2)CC1` had a pKi in [1] of 7.82. Moreover, in data set [2], the pIC50 was 5.64. Moreover, in [3], the “fold change (FC)” value is 2.5. The Stability entry in data set [4] and in data set [5] was “Stable” in each case. The compound further gave a clearance in data set [6] of 141 mL/min/kg. Besides, the Vd in data set [7] was 10 L/kg. In addition, in data set [8], the half-life is 48 min.

Regarding `CCCCCOC(=O)N1CCN(C(=O)[C@H](CCC(=O)O)NC(=O)c2cc(N3CCC(C(=O)NCC)CC3)cc(-c3ccccc3)n2)CC1`, in data set [1], the pKi is 9.24. Moreover, in [2], the pIC50 is 6.19. Also, in data set [3], the “fold change (FC)” value turned out to be 1. Besides, the Stability result in data set [4] and in [5] was “Stable” each time. This compound also displayed a clearance in [6] of 11 mL/min/kg. Further, the Vd in data set [7] is 0.3 L/kg. In data set [8], the half-life was 18 min.

On to `CCCCCOC(=O)N1CCN(C(=O)[C@H](CCC(=O)O)NC(=O)c2cc(N3CC[C@H](OCC(=O)N(C)C)C3)cc(-c3ccccc3)n2)CC1`, for which, in data set [1], the pKi is 8.30. In addition, in [2], the pIC50 was 6.18. Further, in data set [3], the “fold change (FC)” value is reported as 0.75. Besides, the Stability entry in [4] and in data set [5] was “Stable” each time. This compound also yielded a clearance in data set [6] of 41 mL/min/kg. Moreover, in data set [7], the Vd was found to be 0.8 L/kg. In addition, in data set [8], the half-life was 12 min.

For the compound `CCCCCOC(=O)N1CCN(C(=O)[C@H](CCC(=O)O)NC(=O)c2cc(N3CCC(C(=O)N4CCC4)CC3)cc(-c3ccccc3)n2)CC1`, the pKi in data set [1] was 8.92. For the same compound, the pIC50 in [2] is 6.39. Further, the “fold change (FC)” value in data set [3] is reported as 0.64. Besides, the Stability entry in data set [4] and in data set [5] was “Stable” in each case. This compound came in with a clearance in data set [6] of 9 mL/min/kg. The Vd in data set [7] was 0.2 L/kg. Also, the half-life in data set [8] was 18 min.

For the compound `CCCCCOC(=O)N1CCN(C(=O)[C@H](CCC(=O)O)NC(=O)c2cc(N3CC[C@@H](C(=O)N4CCCC4)C3)cc(-c3ccccc3)n2)CC1`, the pKi in data set [1] was 8.85. Further, the pIC50 in data set [2] is 5.66. The “fold change (FC)” value in data set [3] turned out to be 1.7. The Stability result in data set [4] and in [5] was “Stable” each time.

Compound `CCCCCOC(=O)N1CCN(C(=O)[C@H](CCC(=O)O)NC(=O)c2cc(N3CCN(CCN(C)C)CC3)cc(-c3ccccc3)n2)CC1` gave a pKi in [1] of 8.07. Further, in [2], the pIC50 was 6.29. Further, the “fold change (FC)” value in [3] is 0.7. For the same compound, the Stability result in [4] and in data set [5] was “Stable” in each case.

As to `CCCCCOC(=O)N1CCN(C(=O)[C@H](CCC(=O)O)NC(=O)c2cc(N3CCN(C(N)=O)CC3)cc(-c3ccccc3)n2)CC1`, in [1], the pKi is 8.20. For the same compound, in data set [2], the pIC50 was 5.72. Moreover, the “fold change (FC)” value in data set [3] is 1.8. Further, the Stability result in data set [4] and in [5] was “Stable” each time.

Take `CCCCCOC(=O)N1CCN(C(=O)[C@H](CCC(=O)O)NC(=O)c2cc(N3CCN(C(=O)N(C)C)CC3)cc(-c3ccccc3)n2)CC1`: the pKi in data set [1] was 8.23. Besides, the negative logarithm of the IC50 (pIC50) in data set [2] was 5.52. Besides, the “fold change (FC)” value in [3] was found to be 3.6. The Stability entry in data set [4] and in [5] was “Stable” each time.

Compound `CCCCCOC(=O)N1CCN(C(=O)[C@H](CCC(=O)O)NC(=O)c2cc(N3CCC(CCOC)CC3)cc(-c3ccccc3)n2)CC1` gave a pKi in [1] of 7.96. Further, in [2], the pIC50 was 5.57. In data set [3], the “fold change (FC)” value amounted to 3.5. Moreover, the Stability result in data set [4] and in data set [5] was “Stable” each time.

For `CCCCCOC(=O)N1CCN(C(=O)[C@H](CCC(=O)O)NC(=O)c2cc(N3CCCC(N)C3)cc(-c3ccccc3)n2)CC1` (some centres undefined), the pKi in data set [1] was 8.26. In addition, the pIC50 in data set [2] was 5.74. Further, in data set [3], the “fold change (FC)” value is recorded as 2.2. Besides, the Stability entry in data set [4] and in data set [5] was “Stable” in each case.

Regarding `CCCCCOC(=O)N1CCN(C(=O)C(CCC(=O)O)NC(=O)c2cc(N3CCC(CO)C3)cc(-c3ccccc3)n2)CC1` (mixture of isomers), the pKi in data set [1] is 7.68. Also, in [2], the pIC50 was 4.54. Further, the “fold change (FC)” value in data set [3] stood at 11. The Stability entry in data set [4] and in [5] was “Stable” throughout.

The pKi is the negative decadic logarithm of the Ki, by convention in mol/L. A higher pKi goes with a low Ki. A word on the pIC50: it is −log10 of the IC50, conventionally taken in molar units.

Source of the values: ChEMBL document CHEMBL1156904, “Part II: piperazinyl-glutamate-pyridines as potent orally bioavailable P2Y12 antagonists for inhibition of platelet aggregation” (Bioorg Med Chem Lett, 2010).
